In US10555986B2, “Dietary supplement derived from natural prodcuts by hot melt extrusion (HME) processing” (INSTITUTO DE CAPACITACIÓN E INVESTIGACIÓN DEL PLÁS, priority 2017, dated 2020):

What was measured:
[1] = relative to mannitol; background statement; cited from earlier work
[2] = after permanent coronary occlusion; background statement; cited from earlier work
[3] = background statement; cited from earlier work
[4] = release profile of (−)-Epicatechin, 2 hour in medium pH 1.2 and 2 more hours in medium pH 6.8, at 37° C.; format: physicochemical
Description: Releases for EXAMPLES I TO V.
FIG. 22 features release profile of (−)-Epicatechin at 2 hour in a medium with pH of 1.2 and 2 more hours in a medium with pH of 6.8, at 37° C. Releases for examples X to XIII with a particle size distribution between 250 μm and 425 μm (Mesh 40); and particle size distribution between 180 μm and 250 μm (Mesh 60).

[5] = release profile of (−)-Epicatechin in artificial saliva at pH 6.2 and 23° C.; format: physicochemical; conditions: artificial saliva pH 6.2, 23° C.
Description: FIG. 20 describes the release profile of (−)-Epicatechin in artificial saliva at pH 6.2 and 23° C. for examples X to XIII with a particle size distribution between 250 μm and 425 μm (Mesh 40).
FIG. 21 illustrates the release profile of (−)-Epicatechin in artificial saliva at pH 6.2 and 23° C. for EXAMPLE X to XIII with a particle size distribution between 180 μm and 250 μm (Mesh 60).

- % release ([4]; 1 h, medium pH 1.2, 37° C.): 98.59%
- release profile percentages ([4]; 1 h, medium pH 1.2, 37° C., Table 13): 98.59%
- release profile percentages ([4]; 1 h, medium pH 1.2, 37° C., Table 14): 98.59%
- % release ([4]; 2 h, medium pH 1.2, 37° C.): 99.94%
- release profile percentages ([4]; 2 h, medium pH 1.2, 37° C., Table 13): 99.94%
- release profile percentages ([4]; 2 h, medium pH 1.2, 37° C., Table 14): 99.94%
- % release ([4]; 3 h, 2 h pH 1.2 then medium pH 6.8, 37° C.): 100.22%
- release profile percentages ([4]; 3 h, 2 h pH 1.2 then pH 6.8, 37° C., Table 13): 100.22%
- release profile percentages ([4]; 3 h, 2 h pH 1.2 then pH 6.8, 37° C., Table 14): 100.22%
- % release ([4]; 4 h, 2 h pH 1.2 then medium pH 6.8, 37° C.): 100.84%
- release profile percentages ([4]; 4 h, 2 h pH 1.2 then pH 6.8, 37° C., Table 13): 100.84%
- release profile percentages ([4]; 4 h, 2 h pH 1.2 then pH 6.8, 37° C., Table 14): 100.84%
- % release ([5]; 30 s): 75.30%
- release profile percentages ([5]; 30 s, Table 13): 75.30%
- release profile percentages ([5]; 30 s, Table 14): 75.30%
- % release ([5]; 60 s): 88.70%
- release profile percentages ([5]; 60 s, Table 13): 88.70%
- release profile percentages ([5]; 60 s, Table 14): 88.70%
- % release ([5]; 120 s): 93.43%
- release profile percentages ([5]; 120 s, Table 13): 93.43%
- release profile percentages ([5]; 120 s, Table 14): 93.43%
Compound: Oc1cc(O)c2c(c1)O[C@H](c1ccc(O)c(O)c1)[C@H](O)C2 [EPICATECHIN AT 90%, (−)-Epicatechin (2R,3R)]
- quenches OH more effectively than mannitol [1]: 100 times
- reduction in scar (infarct) size [2]: approximately 33%
- oral bioavailability [3]: less than 5%
